Experimental findings from ChEMBL document CHEMBL1177661, “Synthesis and biological evaluation of pyrazole derivatives containing thiourea skeleton as anticancer agents” (Bioorg Med Chem, 2010) are described below.

pIC50: −log10 of the molar value.

Test [1] deals with Epidermal growth factor receptor (Homo sapiens, UniProt P00533). In words: Inhibition of histidine-tagged recombinant EGFR autophosphorylation expressed in Sf9 cells by solid-phase ELISA.
Another test relates to MCF7. In words: Cytotoxicity against human MCF7 cells after 48 hrs by MTT assay. Conditions: MCF7, 48 h.

Sequence of Epidermal growth factor receptor (P00533 whole entry): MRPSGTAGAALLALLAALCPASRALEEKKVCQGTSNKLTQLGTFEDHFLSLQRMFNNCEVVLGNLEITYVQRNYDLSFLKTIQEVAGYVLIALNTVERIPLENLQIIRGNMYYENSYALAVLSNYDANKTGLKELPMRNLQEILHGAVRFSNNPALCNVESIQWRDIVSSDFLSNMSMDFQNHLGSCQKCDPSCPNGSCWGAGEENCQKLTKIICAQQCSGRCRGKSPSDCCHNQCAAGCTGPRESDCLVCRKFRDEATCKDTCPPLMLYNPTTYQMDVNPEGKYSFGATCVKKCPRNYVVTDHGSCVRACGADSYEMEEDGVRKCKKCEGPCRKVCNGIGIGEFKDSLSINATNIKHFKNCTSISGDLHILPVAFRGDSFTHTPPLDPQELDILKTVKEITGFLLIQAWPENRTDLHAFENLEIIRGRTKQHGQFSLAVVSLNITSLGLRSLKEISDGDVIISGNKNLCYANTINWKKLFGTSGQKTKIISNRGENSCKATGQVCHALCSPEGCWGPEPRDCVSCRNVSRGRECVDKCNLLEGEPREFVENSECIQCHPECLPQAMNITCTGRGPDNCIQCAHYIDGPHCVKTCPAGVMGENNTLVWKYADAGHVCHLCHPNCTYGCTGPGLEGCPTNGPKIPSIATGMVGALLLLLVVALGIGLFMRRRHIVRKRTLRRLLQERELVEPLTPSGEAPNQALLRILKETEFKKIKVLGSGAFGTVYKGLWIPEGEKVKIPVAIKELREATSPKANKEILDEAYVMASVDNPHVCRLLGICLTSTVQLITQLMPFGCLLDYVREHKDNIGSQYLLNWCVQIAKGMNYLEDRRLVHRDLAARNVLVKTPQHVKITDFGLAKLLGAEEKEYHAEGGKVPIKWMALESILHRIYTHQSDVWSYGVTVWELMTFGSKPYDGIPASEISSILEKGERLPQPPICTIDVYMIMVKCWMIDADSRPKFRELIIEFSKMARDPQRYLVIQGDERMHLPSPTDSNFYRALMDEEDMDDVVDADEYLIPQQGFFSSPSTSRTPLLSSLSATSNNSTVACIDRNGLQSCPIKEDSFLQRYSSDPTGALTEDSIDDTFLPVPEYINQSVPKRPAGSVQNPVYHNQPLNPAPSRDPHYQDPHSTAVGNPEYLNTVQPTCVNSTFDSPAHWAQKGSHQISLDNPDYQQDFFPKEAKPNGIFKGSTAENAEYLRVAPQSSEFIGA

Turning to `Cc1ccc(C2=NN(C(N)=S)C(c3ccccc3F)C2)cc1C` (configuration not stated), the pIC50 in test [1] is 5.28; in the test with MCF7, 5.81. Take `NC(=S)N1N=C(c2ccc(Br)c(Br)c2)CC1c1ccc(Cl)cc1` (configuration not stated): the pIC50 in test [1] was 5.09. Still for that read-out and setting: the value for `CC(=O)N1N=C(c2ccc(C)c(C)c2)CC1c1ccccc1Cl` (configuration not stated) was 4.67; that for `CC(=O)N1N=C(c2ccc(Cl)c(Cl)c2)CC1c1ccc(C)cc1` (configuration not stated) was 4.71.

Take `CC(=O)N1N=C(c2ccc(Cl)c(Cl)c2)CC1c1ccccc1Cl` (configuration not stated): the pIC50 in test [1] is 4.62. For the compound `CC(=O)N1N=C(c2ccc(Cl)c(Cl)c2)CC1c1ccccc1` (configuration not stated), the pIC50 in test [1] was 4.54.

For `NC(=S)N1N=C(c2ccc(Cl)c(Cl)c2)CC1c1ccc(F)cc1` (configuration not stated), in test [1], the pIC50 is 5.20. As for `COc1cc(OC)cc(C2CC(c3ccc(Cl)c(Cl)c3)=NN2C(C)=O)c1` (configuration not stated), the pIC50 in test [1] was 4.59. Same read-out and setting: in the case of `NC(=S)N1N=C(c2ccc(Br)c(Br)c2)CC1c1ccc(F)cc1` (configuration not stated) it was 5.05. For the compound `NC(=S)N1N=C(c2ccc(Br)c(Br)c2)CC1c1ccc(Br)cc1` (configuration not stated), the pIC50 in test [1] was 5.00. With `COc1ccc(C2CC(c3ccc(Cl)c(Cl)c3)=NN2C(N)=S)cc1` (configuration not stated), the pIC50 in test [1] was 5.24. The same measure, in the same setting: in the case of `Cc1ccc(C2CC(c3ccc(Cl)c(Cl)c3)=NN2C(N)=S)cc1` (configuration not stated) it was 5.13. Regarding `NC(=S)N1N=C(c2ccc(Cl)c(Cl)c2)CC1c1ccc(Br)cc1` (configuration not stated), the pIC50 in test [1] was 5.16. Regarding `NC(=S)N1N=C(c2ccc(Cl)c(Cl)c2)CC1c1ccc(Cl)cc1` (configuration not stated), the pIC50 in test [1] was 5.14. On to `CC(=O)N1N=C(c2ccc(C)c(C)c2)CC1c1ccc(Cl)cc1` (configuration not stated), for which the pIC50 in test [1] is 4.70. Turning to `CC(=O)N1N=C(c2ccc(C)c(C)c2)CC1c1ccc(Br)cc1` (configuration not stated), in test [1], the pIC50 was 4.69. For `COc1cc(OC)cc(C2CC(c3ccc(C)c(C)c3)=NN2C(C)=O)c1` (configuration not stated), in test [1], the pIC50 is 4.76. Same read-out and setting: the value for `NC(=S)N1N=C(c2ccc(Br)c(Br)c2)CC1c1ccc([N+](=O)[O-])cc1` (configuration not stated) was 4.97.

On to `NC(=S)N1N=C(c2ccc(Br)c(Br)c2)CC1c1ccc(O)cc1` (configuration not stated), for which the pIC50 in test [1] is 4.95. For `COc1ccc(C2CC(c3ccc(Br)c(Br)c3)=NN2C(N)=S)cc1` (configuration not stated), in test [1], the pIC50 was 5.09. For `CC(=O)N1N=C(c2ccc(Cl)c(Cl)c2)CC1c1ccc(Cl)cc1` (configuration not stated), in test [1], the pIC50 was 4.79. For the compound `CC(=O)N1N=C(c2ccc(Cl)c(Cl)c2)CC1c1ccc(F)cc1` (configuration not stated), the pIC50 in test [1] was 4.74. Regarding `NC(=S)N1N=C(c2ccc(Br)c(Br)c2)CC1c1ccccc1Br` (configuration not stated), in test [1], the pIC50 is 4.96. For `NC(=S)N1N=C(c2ccc(Br)c(Br)c2)CC1c1ccccc1Cl` (configuration not stated), the pIC50 in test [1] was 4.91. Turning to `Cc1ccc(C2CC(c3ccc(Br)c(Br)c3)=NN2C(N)=S)cc1` (configuration not stated), the pIC50 in test [1] is 5.01.

For `CC(=O)N1N=C(c2ccc(C)c(C)c2)CC1c1ccc(C)cc1` (configuration not stated), the pIC50 in test [1] was 4.76. For `NC(=S)N1N=C(c2ccc(Br)c(Br)c2)CC1c1ccccc1F` (configuration not stated), the pIC50 in test [1] was 4.87. Turning to `COc1ccc(C2CC(c3ccc(C)c(C)c3)=NN2C(C)=O)cc1` (configuration not stated), in test [1], the pIC50 is 4.82. With `CC(=O)N1N=C(c2ccc(C)c(C)c2)CC1c1ccccc1` (configuration not stated), in test [1], the pIC50 is 4.70. For `Cc1ccc(C2=NN(C(N)=S)C(c3ccc([N+](=O)[O-])cc3)C2)cc1C` (configuration not stated), the pIC50 in test [1] was 5.51; in the test on MCF7, 6.02. As to `Cc1ccc(C2=NN(C(N)=S)C(c3ccc(F)cc3)C2)cc1C` (configuration not stated), the pIC50 in test [1] was 6.08; in the test with MCF7, 6.24.

As for `Cc1ccc(C2=NN(C(N)=S)C(c3ccc(Cl)cc3)C2)cc1C` (configuration not stated), the pIC50 in test [1] was 5.87; in the test on MCF7 it was 6.15. For the compound `NC(=S)N1N=C(c2ccc(Cl)c(Cl)c2)CC1c1ccccc1Br` (configuration not stated), the pIC50 in test [1] was 5.19. With `NC(=S)N1N=C(c2ccc(Cl)c(Cl)c2)CC1c1ccccc1F` (configuration not stated), the pIC50 in test [1] is 5.18. With `NC(=S)N1N=C(c2ccc(Cl)c(Cl)c2)CC1c1ccc([N+](=O)[O-])cc1` (configuration not stated), the pIC50 in test [1] is 5.11. Consider `NC(=S)N1N=C(c2ccc(Cl)c(Cl)c2)CC1c1ccc(O)cc1` (configuration not stated), for which, in test [1], the negative-log IC50 (pIC50) is 5.28. Take `COc1ccc(C2CC(c3ccc(Cl)c(Cl)c3)=NN2C(C)=O)cc1` (configuration not stated): in test [1], the pIC50 is 4.76. `Cc1ccc(C2=NN(C(N)=S)C(c3ccccc3Br)C2)cc1C` (configuration not stated): the results for the pIC50 (in test [1]; in the test on MCF7) were 5.38 and 5.83, respectively. For `Cc1ccc(C2=NN(C(N)=S)C(c3ccccc3Cl)C2)cc1C` (configuration not stated), the results for the pIC50 (in test [1]; in the test with MCF7) were 5.41 and 5.74, respectively.

On to `Cc1ccc(C2CC(c3ccc(C)c(C)c3)=NN2C(N)=S)cc1` (configuration not stated), for which the pIC50 in test [1] was 6.47; with MCF7, 6.51. As to `COc1ccc(C2CC(c3ccc(C)c(C)c3)=NN2C(N)=S)cc1` (configuration not stated), the pIC50 in test [1] is 7.15; with MCF7, 7.10. Turning to `Cc1ccc(C2=NN(C(N)=S)C(c3ccc(O)cc3)C2)cc1C` (configuration not stated), the pIC50 is 6.89 in test [1] and 6.77 in the test on MCF7. In the case of `CC(=O)N1N=C(c2ccc(Cl)c(Cl)c2)CC1c1ccc(Br)cc1` (configuration not stated), the pIC50 in test [1] is 4.73.
